Measured values from patent US9095631B2, “Tetrahydroisoquinoline compounds for use in the diagnosis and treatment of neurodegenerative diseases” (UNIVERSITA DEGLI STUDI DI BARI “ALDO MORO”, priority 2011, dated 2015).

Columns and labels:
P-gp [1] = biological target: T1, P-gp (Homo sapiens, UniProt P08183); assay: Apparent Permeability Determination (Papp) on Caco-2 cells overexpressing P-gp; assay type: in vitro ADME; conditions: ratio Papp-BA/Papp-AB, 18-20 transported by P-gp, 2-18 modulator, 1-2 not transported
Procedure: 1) Apparent Permeability Determination (Papp)
This assay is carried out on colon adenocarcinoma cell line (Caco-2) overexpressing P-gp, a cell model usually employed for the permeability study. In this experiment Apparent Permeability (Papp) is determined both in basolateral/apical direction (Papp-BA) and in apical/basolateral direction (Papp-AB). The BA/AB ratio allow to discriminate if a ligand is transported by P-gp (BA/AB ratio between 18 and 20), or not (BA/AB ratio between 1 and 2). For BA/AB ratio between 2 and 18 compounds can be classified as modulators (see Polli, J. V et al., 2001, J. Pharmacol. Exp. Ther. 299, 620-628).

MRP1 = biological target: T2, MRP1 (Homo sapiens, UniProt P33527); assay: Inhibition of the transport of Calcein-AM on MDCK cell lines overexpressing MDR proteins (MRP1); assay type: cell-based; conditions: for EC50: Calcein-AM transport inhibition, MDCK cells overexpressing MRP1
T2 construct: expressed in transfected cells; host or cells: MDCK
Procedure: (§1) 3) Inhibition of the Transport of Calceina-AM and of Rhodamine-123 on MDCK Cell Lines Overexpressing MDR Proteins.
(§2) In this assay the inhibition of the transport of a BCRP fluorescent substrate, Rhodamina-123, or of a P-gp or MRP1 profluorescent substrate, Calcein-AM, is determined.
(§3) Calcein-AM, entering the cell membrane is […] by citosolic esterase to fluorescent calcein (that is not a P-gp substrate) leading to a fluorescent signal. Therefore, the inhibition of the efflux pump will be directly correlated to the fluorescent signal due to the cell accumulation of Calcein-AM (see Feng, B., et al., 2008; Drug Metab. Dispos. 36, 268-275).

P-gp [2] = biological target: T1, P-gp; assay: Inhibition of the transport of Calcein-AM on MDCK cell lines overexpressing MDR proteins (P-gp); assay type: cell-based; parameters: expressed in transfected cells; host or cells: MDCK; conditions: MDCK cells overexpressing P-gp
Procedure: as §1, §2, §3

T2 sequence (P33527 whole entry): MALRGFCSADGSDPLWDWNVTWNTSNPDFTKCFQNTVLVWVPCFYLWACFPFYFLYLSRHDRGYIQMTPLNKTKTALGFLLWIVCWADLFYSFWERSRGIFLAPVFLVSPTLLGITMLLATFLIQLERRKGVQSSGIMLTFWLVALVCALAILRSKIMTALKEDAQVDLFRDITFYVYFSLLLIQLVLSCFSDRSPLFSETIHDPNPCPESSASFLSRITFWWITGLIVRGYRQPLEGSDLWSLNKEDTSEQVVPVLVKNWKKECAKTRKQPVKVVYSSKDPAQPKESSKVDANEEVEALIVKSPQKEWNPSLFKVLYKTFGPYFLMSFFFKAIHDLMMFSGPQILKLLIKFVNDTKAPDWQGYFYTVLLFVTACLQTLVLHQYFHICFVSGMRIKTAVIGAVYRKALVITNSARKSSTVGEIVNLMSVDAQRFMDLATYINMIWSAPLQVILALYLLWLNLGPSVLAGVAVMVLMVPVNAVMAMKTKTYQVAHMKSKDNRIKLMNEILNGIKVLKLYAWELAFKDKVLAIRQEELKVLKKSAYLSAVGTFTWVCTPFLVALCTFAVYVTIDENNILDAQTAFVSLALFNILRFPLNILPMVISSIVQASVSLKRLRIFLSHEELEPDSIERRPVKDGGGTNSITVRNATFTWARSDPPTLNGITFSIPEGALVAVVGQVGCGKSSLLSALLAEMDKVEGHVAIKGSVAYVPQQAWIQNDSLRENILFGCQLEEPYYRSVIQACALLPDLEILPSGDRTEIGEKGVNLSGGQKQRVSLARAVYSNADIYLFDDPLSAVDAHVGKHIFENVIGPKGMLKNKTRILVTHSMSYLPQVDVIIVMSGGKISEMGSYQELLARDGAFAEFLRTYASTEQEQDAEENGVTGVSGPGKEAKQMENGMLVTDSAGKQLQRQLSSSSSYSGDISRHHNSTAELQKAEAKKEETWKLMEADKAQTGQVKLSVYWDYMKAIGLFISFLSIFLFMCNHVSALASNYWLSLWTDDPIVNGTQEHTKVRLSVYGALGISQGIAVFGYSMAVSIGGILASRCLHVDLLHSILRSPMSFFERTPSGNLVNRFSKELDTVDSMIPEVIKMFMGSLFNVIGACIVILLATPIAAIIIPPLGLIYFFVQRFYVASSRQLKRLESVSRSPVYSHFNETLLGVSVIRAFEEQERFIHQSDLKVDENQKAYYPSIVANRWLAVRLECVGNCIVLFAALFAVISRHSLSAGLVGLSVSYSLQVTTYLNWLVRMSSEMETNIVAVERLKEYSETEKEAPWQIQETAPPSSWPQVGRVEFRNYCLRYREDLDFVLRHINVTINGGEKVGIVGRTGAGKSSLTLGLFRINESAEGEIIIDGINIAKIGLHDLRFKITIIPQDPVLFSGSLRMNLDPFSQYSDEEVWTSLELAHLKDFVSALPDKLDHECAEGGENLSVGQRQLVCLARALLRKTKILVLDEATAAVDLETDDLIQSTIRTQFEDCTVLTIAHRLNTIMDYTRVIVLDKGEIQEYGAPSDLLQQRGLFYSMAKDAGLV
T1 sequence (P08183 whole entry): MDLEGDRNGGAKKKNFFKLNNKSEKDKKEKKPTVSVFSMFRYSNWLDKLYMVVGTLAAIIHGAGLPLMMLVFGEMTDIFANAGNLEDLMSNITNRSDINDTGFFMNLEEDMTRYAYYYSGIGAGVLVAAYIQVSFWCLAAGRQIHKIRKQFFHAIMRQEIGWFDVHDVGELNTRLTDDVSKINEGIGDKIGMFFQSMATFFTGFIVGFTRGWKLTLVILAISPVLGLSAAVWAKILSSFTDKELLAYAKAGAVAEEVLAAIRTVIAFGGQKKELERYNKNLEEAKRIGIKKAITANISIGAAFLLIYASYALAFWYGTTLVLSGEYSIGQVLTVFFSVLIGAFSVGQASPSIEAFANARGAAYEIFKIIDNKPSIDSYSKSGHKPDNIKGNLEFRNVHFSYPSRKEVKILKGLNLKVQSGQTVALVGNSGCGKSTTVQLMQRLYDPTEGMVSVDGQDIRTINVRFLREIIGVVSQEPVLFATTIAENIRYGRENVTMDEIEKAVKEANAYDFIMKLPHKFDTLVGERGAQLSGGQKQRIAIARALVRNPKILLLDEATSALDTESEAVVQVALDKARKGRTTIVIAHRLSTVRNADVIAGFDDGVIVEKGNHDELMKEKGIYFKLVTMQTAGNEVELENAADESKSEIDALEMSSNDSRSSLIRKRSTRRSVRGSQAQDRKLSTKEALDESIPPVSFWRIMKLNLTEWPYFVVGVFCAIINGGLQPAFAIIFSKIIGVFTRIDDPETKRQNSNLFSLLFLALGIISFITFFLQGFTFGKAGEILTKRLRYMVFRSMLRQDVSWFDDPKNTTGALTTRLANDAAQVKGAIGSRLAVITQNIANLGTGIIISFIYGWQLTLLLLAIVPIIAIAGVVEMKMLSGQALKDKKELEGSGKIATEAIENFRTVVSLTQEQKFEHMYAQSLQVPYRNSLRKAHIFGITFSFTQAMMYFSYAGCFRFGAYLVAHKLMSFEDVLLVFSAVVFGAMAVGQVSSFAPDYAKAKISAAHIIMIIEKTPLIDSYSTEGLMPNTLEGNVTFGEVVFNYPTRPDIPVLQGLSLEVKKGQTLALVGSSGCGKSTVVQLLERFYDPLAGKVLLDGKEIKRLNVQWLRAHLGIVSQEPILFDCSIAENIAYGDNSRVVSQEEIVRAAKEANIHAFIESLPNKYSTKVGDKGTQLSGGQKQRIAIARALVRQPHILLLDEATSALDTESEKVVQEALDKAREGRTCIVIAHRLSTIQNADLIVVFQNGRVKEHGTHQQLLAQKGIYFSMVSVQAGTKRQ

COc1ccc2cc(-c3nc(CN4CCc5cc(OC)c(OC)cc5C4)cs3)ccc2c1 [R2 = H, R1 = OCH3, X = S, 1,2,3,4-tetrahydro-6,7-dimethoxy-2-((2-(2-methoxynaphthalen-6-yl)thiazol-4-yl)methyl)isoquinoline] gave an efflux ratio (P-gp [1]) of 6, an EC50 (MRP1) greater than 100 µM and an EC50 (P-gp [2]) of 1000 nM.

COc1cc2c(cc1OC)CN(Cc1coc(-c3ccc4cc(F)ccc4c3)n1)CC2 [R2 = H, R1 = F, X = O, 2-((2-(2-fluoronaphthalen-6-yl)oxazol-4-yl)methyl)-1,2,3,4-tetrahydro-6,7-dimethoxyisoquinoline] showed an efflux ratio (P-gp [1]) of 0.8, an EC50 (MRP1) of 31.8 µM and an EC50 (P-gp [2]) of 5200 nM.

COc1cc2c(cc1OC)CN(Cc1csc(-c3ccc4cc(Br)ccc4c3)n1)CC2 [R2 = H, R1 = Br, X = S, (2-((2-(2-Bromonaftalen-6-il)thiazol-4-il)metil)-1,2,3,4-tetraidro-6,7-dimetossiisochinolina] was tested, and the efflux ratio (P-gp [1]) was 6, the EC50 (MRP1) was greater than 100 µM and the EC50 (P-gp [2]) was 3700 nM.

COc1cc2c(cc1OC)CN(Cc1coc(-c3ccc4cc(O)ccc4c3)n1)CC2 [R2 = H, R1 = OH, X = O, 2-((2-(2-hydroxynaphthalen-6-yl)oxazol-4-yl)methyl)-1,2,3,4-tetrahydro-6,7-dimethoxyisoquinoline] was tested, and the efflux ratio (P-gp [1]) was 1.6, the “activity towards MRP1 (in words)” value (MRP1) was “inactive” and the EC50 (MRP1) was greater than 100 µM. For the same compound, the EC50 (P-gp [2]) was 2800 nM.

In the case of COc1cc2c(cc1OC)CN(Cc1coc(-c3ccc4ccccc4c3)n1)CC2 [R2 = H, R1 = H, X = O, 1,2,3,4-tetrahydro-6,7-dimethoxy-2-((2-(naphthalen-6-yl)oxazol-4-yl)methyl)isoquinoline], the efflux ratio (P-gp [1]) is reported as 0.4, the EC50 (MRP1) is reported as 33.2 µM and the EC50 (P-gp [2]) is reported as 2700 nM.
